The record followed here is PubChem BioAssay AID1769 (NMMLSC, 2009).

By EC50 is commonly meant the concentration that produces a half-maximal response.

In this experiment the target is glutathione S-transferase (Schistosoma japonicum GST tag binding GSH beads). The experiment is described as follows: GST–glutathione bead interaction interference profiling – biochemical, multiplex beads, flow cytometry, profiling panel (AID 1769).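 Note: target is a GST and green fluorescent protein fusion captured on glutathione beads.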 Particulars: flow cytometry fluorescence. (In general: In flow cytometry, cells or beads pass a laser one at a time.)

Regarding `O=c1c2c(-c3ccccc3)csc2nc2c3ccccc3c(NCCN3CCOCC3)nn12`, the EC50 is 1.84 µM.

Regarding `O=C(Nc1cccc(-c2nnc(-c3ccco3)o2)c1)c1ccccc1`, the EC50 was 40.8 µM.

As for `O=C(COC(=O)c1ccc2c(c1[N+](=O)[O-])C(=O)c1ccccc1C2=O)NC1CC1`, the EC50 is 28 µM.

On to `O=C(CSc1ccccc1)Nc1ccc(C(=O)Nc2cccc(O)c2)cc1`, for which the EC50 is 1.9 µM.

As for `Cn1cccc1/C=C1\SC(=S)N(NC(=O)c2ccccc2Cl)C1=O`, the EC50 was 51.7 µM.

In the case of `O=C(/C=C/c1ccc(N2CCC(c3ccccc3)=N2)cc1)c1ccccc1`, the EC50 was 0.34 µM.

Consider `O=C(NCc1cccnc1)c1cccn2c(=O)c3sccc3nc12`, for which the EC50 was 25.2 µM.

As to `Cc1cc(C)cc(N2C(=O)NC(=O)/C(=C\C=C\c3ccco3)C2=O)c1`, the EC50 is 4.38 µM.

With `COc1ccc(/C=N/NC(=O)c2ccncc2)cc1Cn1nc([N+](=O)[O-])c(Br)c1C`, the EC50 was 9.22 µM.

`O=C(Cc1ccc(Nc2nc(=S)[nH]c3ccccc23)cc1)NC1CCCCC1`: the EC50 is 6.65 µM.

As for `NC(=O)c1cc2nc(-c3ccco3)cc(C(F)(F)F)n2n1`, the EC50 is 15.9 µM.

For the compound `CSc1nc2ccc(NC(=O)C3CC(=O)N(Cc4ccco4)C3)cc2s1` (stereo not drawn), the EC50 was 46.9 µM.

As to `NS(=O)(=O)c1ccc(Nc2nc(-c3ccc(O)cc3O)cs2)cc1`, the EC50 was 2.29 µM.

On to `O=c1c2ccccc2nc2c3ccccc3c(NCc3cccnc3)nn12`, for which the half-maximal effective concentration (EC50) is 0.348 µM.

For `Cc1ccc(/C=N/N(C)C2=NS(=O)(=O)c3ccccc32)o1`, the EC50 was 7.42 µM.

In the case of `O=[N+]([O-])c1ccc2c(c1)c(-c1ccccc1)nc1nncn12`, the EC50 was 3.04 µM.

`COc1ccc2o/c(=N/NC(=O)c3cccs3)c(C(N)=O)cc2c1`: the EC50 was 7.29 µM.

For `Cc1c(CCC(=O)O)c(=O)oc2cc3occ(-c4ccc(F)cc4)c3cc12`, the EC50 is 70.5 µM.

Consider `CN(/N=C/c1ccc(Br)o1)C1=NS(=O)(=O)c2ccccc21`, for which the EC50 is 0.184 µM.

Turning to `COCCCNc1nc(=S)[nH]c2cc(OC)c(OC)cc12`, the EC50 is 15.2 µM.

Consider `COc1cc2[nH]c(=S)nc(Nc3ccc(NC(C)=O)cc3)c2cc1OC`, for which the EC50 was 2.91 µM.

In the case of `COC(=O)COc1ccc(/C=N/NC(=O)c2ccc(N(Cc3ccccc3)S(C)(=O)=O)cc2)cc1`, the EC50 was 4.09 µM.

`COc1ccc(/C=N/n2c(N)c(S(=O)(=O)c3cccs3)c3nc4ccccc4nc32)cc1OC`: the EC50 is 0.612 µM.

For the compound `O=C(CSc1ccc2nnc(-c3cccs3)n2n1)N1CCCC1`, the EC50 was 1.3 µM.

Turning to `COc1ccc(-c2csc(NC(=S)NC(=O)c3cccs3)n2)cc1OC`, the EC50 was 1.33 µM.

For the compound `O=C(CN1CCN(c2ccc(O)cc2)CC1)Nc1cc(S(=O)(=O)N2CCCCC2)ccc1Cl`, the EC50 is 19.1 µM.

On to `N#Cc1c2nc3ccccc3nc2n2cc(NC(=O)c3ccc(F)cc3)ccc12`, for which the concentration for a half-maximal effect (EC50) was 0.95 µM.

`CSc1nc(Cc2ccccc2)cc(=O)[nH]1`: the EC50 was 31.3 µM.

As for `CCn1cc(C(=O)O)c(=O)c2cc(F)c(N/N=C/c3ccccc3)cc21`, the EC50 was 3.88 µM.

Regarding `COc1cc2c(cc1OC)-c1cc(NC3CCCCCCC3)nc(=O)n1CC2`, the EC50 was 20.5 µM.

For the compound `Nc1c([N+](=O)[O-])cc(-c2cnc[nH]2)cc1[N+](=O)[O-]`, the EC50 was 0.391 µM.

Consider `COc1ccc(-c2cc(-c3ccc(O)cc3)nc(N)c2C#N)cc1OC`, for which the 50% effective concentration (EC50) was 11.5 µM.

As for `COc1ccc2c(C)nc(N/C(N)=N/S(=O)(=O)c3ccc(C)cc3)nc2c1`, the EC50 was 7.51 µM.

For `CCOC(=O)c1c2c3c(c(Cl)ccc3[nH]c1=O)C(=O)c1ccccc1-2`, the EC50 is 0.4 µM.

On to `Cc1cc2nc3c(=O)n(C4CCCCC4)c(=O)[nH]c3nc2cc1N`, for which the EC50 is 6.99 µM.

On to `Cc1sc2nc3c(SC(C)C(=O)O)cc(C(=O)c4ccccc4O)cn3c(=O)c2c1C` (stereo not drawn), for which the EC50 is 92.7 µM.

Regarding `CC(=O)Nc1ccc(Nc2ccc3c4c(cc(=O)n3C)-c3ccccc3C(=O)c24)cc1`, the EC50 was 0.151 µM.

Take `O=C(N/N=C/c1ccc2nccnc2c1)c1cccc([N+](=O)[O-])c1`: the EC50 is 8.59 µM.
